{
  "source": "the SangsterLogP compilation",
  "data": [
    {"assay": "method code SF-HPLC, from DOI: 10.1016/b978-0-08-029222-9.50040-8", "values": [
      {"compound": "CSC(C)=NOC(=O)N(C)SN(C)C(=O)N(C(C)C)C(C)C", "logP": 2.6},
      {"compound": "CSC(C)=NOC(=O)N(C)SN(C)C(=O)C(C)C", "logP": 2.2},
      {"compound": "CSC(C)=NOC(=O)N(C)SN(C)C(=O)C1CC1", "logP": 1.7},
      {"compound": "CSC(C)=NOC(=O)N(C)SN(C)C(=O)c1cccc(Cl)c1", "logP": 2.7},
      {"compound": "CCCCCCOC(=O)N(C)SN(C)C(=O)ON=C(C)SC", "logP": 4.2},
      {"compound": "CCCCOC(=O)N(CCCC)SN(C)C(=O)ON=C(C)SC", "logP": 4.2},
      {"compound": "CCCCN(SN(C)C(=O)ON=C(C)SC)C(=O)c1ccccc1", "logP": 3.4},
      {"compound": "CN(SN(C)C(=O)c1ccccc1Cl)C(=O)Oc1cccc2c1OC(C)(C)C2", "logP": 4.1},
      {"compound": "CCCCN(SN(C)C(=O)ON=C(C)SC)C(C)=O", "logP": 2.4},
      {"compound": "CSC(C)=NOC(=O)N(C)SN(C)C(=O)c1c(Cl)cccc1Cl", "logP": 2.6},
      {"compound": "COC(=O)N(C)SN(C)C(=O)Oc1cccc2c1OC(C)(C)C2", "logP": 3},
      {"compound": "CSC(C)=NOC(=O)N(C)SN(C)C(=O)ON=C(C)SC", "logP": 1.7},
      {"compound": "CN(SN(C)C(=O)c1ccc(Cl)cc1Cl)C(=O)Oc1cccc2c1OC(C)(C)C2", "logP": 4.9},
      {"compound": "CCN(CC)C(=O)N(C)SN(C)C(=O)ON=C(C)SC", "logP": 3.2},
      {"compound": "CCCCCCN(SN(C)C(=O)ON=C(C)SC)C(=O)N(C)C", "logP": 3.3},
      {"compound": "CSC(C)=NOC(=O)N(C)SN(C)C(=O)c1ccccc1", "logP": 2.2},
      {"compound": "CCCC(=O)N(C)SN(C)C(=O)Oc1cccc2c1OC(C)(C)C2", "logP": 3.8},
      {"compound": "CCC(=O)N(C)SN(C)C(=O)Oc1cccc2c1OC(C)(C)C2", "logP": 3.2},
      {"compound": "CSC(C)=NOC(=O)N(C)SN(C)C(=O)c1cccc(C(F)(F)F)c1", "logP": 2.5},
      {"compound": "CCCCN(SN(C)C(=O)Oc1cccc2c1OC(C)(C)C2)C(=O)OC", "logP": 4.6},
      {"compound": "CSC(C)=NOC(=O)N(C)SN(C(=O)c1ccc(C)cc1)C(C)C", "logP": 3.4},
      {"compound": "CS/C(C)=N\\OC(=O)N(C)SN(C)C(=O)c1ccc(C)cc1", "logP": 2.5},
      {"compound": "CSC(C)=NOC(=O)N(C)SN(C)C(=O)c1ccc(Cl)cc1Cl", "logP": 3.2},
      {"compound": "CN(SN(C)C(=O)OC(C)(C)C)C(=O)Oc1cccc2c1OC(C)(C)C2", "logP": 4.3},
      {"compound": "CN(SN(C)C(=O)c1ccc(Cl)cc1)C(=O)Oc1cccc2c1OC(C)(C)C2", "logP": 4},
      {"compound": "CCC(=O)N(C)SN(C)C(=O)ON=C(C)SC", "logP": 1.6},
      {"compound": "CN(SN(C)C(=O)c1ccccc1)C(=O)Oc1cccc2c1OC(C)(C)C2", "logP": 3.5},
      {"compound": "CCCCCCCCCCOC(=O)N(C)SN(C)C(=O)ON=C(C)SC", "logP": 6.2},
      {"compound": "CCOC(=O)N(C)SN(C)C(=O)Oc1cccc2c1OC(C)(C)C2", "logP": 3.5},
      {"compound": "CS/C(C)=N\\OC(=O)N(C)SN(C)C(C)=O", "logP": 1.3},
      {"compound": "CSC(C)=NOC(=O)N(C)SN(C)C(=O)OC1CCCCC1", "logP": 3.6},
      {"compound": "CNC(=O)ON=C(C)SC", "logP": 0.6},
      {"compound": "CCCC(=O)N(C)SN(C)C(=O)ON=C(C)SC", "logP": 2.2},
      {"compound": "CSC(C)=NOC(=O)N(C)SN(C)C(=O)c1ccccc1Cl", "logP": 2.5},
      {"compound": "CCCCN(SN(C)C(=O)O/N=C(\\C)SC)C(=O)OC", "logP": 2.5},
      {"compound": "CCCCCCC(=O)N(SN(C)C(=O)ON=C(C)SC)c1ccccc1", "logP": 4.2},
      {"compound": "CC(=O)N(C)SN(C)C(=O)Oc1cccc2c1OC(C)(C)C2", "logP": 2.7},
      {"compound": "COC(=O)N(C)SN(C)C(=O)O/N=C(\\C)SC", "logP": 1.4},
      {"compound": "CSC(C)=NOC(=O)N(C)SN(C)C(=O)c1ccc(Cl)cc1", "logP": 2.6},
      {"compound": "CC(C)C(=O)N(C)SN(C)C(=O)Oc1cccc2c1OC(C)(C)C2", "logP": 3.6}
    ]}
  ]
}
